Experimental data as given in patent US9839642B2, “Beta-tetrazolyl-propionic acids as metallo-beta-lactamase inhibitors” (priority 2014, dated 2017).
Read-outs that look alike come from different tables or passages of the source.

Assays:
IMP-1 = IMP-1 (Serratia marcescens, UniProt P52699); assay: Enzyme activity: determination of IC50, fluorescence assay with CCF2-FA substrate; assay type: biochemical; settings: CCF2-FA 1.25 μM, 2 hours at 25° C., read-out: IMP1 IC50
Procedure: (§1) Enzyme Activity: Determination of IC50
(§2) The Class B enzyme activities were measured in the presence of a compound of the EXAMPLES as a test inhibitor in a fluorescence assay against a commercially available substrate consisting of a cephalosporin core linking 7-hydroxycoumarin to fluorescein (CCF2-FA; Life Technologies, Grand Island, N.Y.). The enzyme (NDM-1, IMP-1 or VIM-1) and the substrate were diluted in 100 mM KH2PO4 buffer (pH 7) containing 0.005% Tween-20 and 10 μM ZnSO4. In the assay, the final concentration of enzyme was 1 pM, 2 pM and 30 pM for NDM-1, IMP-1 and VIM-1, respectively, and the final concentration of CCF2-FA was 1.25 μM. The test inhibitor was dissolved in DMSO and diluted 1:50 in the assay, resulting in a final concentration range of 20 μM to 0.00063 μM. In a 384-well microplate, the test inhibitor was incubated with the metallo-β-lactamase enzyme and the substrate for 2 hours at 25° C. Fluorescence at 460 nm following excitation at 405 nm was measured. The IC50 value was determined from semi-logarithmic plots of enzyme inhibition versus inhibitor concentration, with a curve generated using a 4-parameter fit.

VIM-1 = VIM-1 (Pseudomonas aeruginosa, UniProt A0A0F7KYQ8); assay: as above; assay type: biochemical; settings: CCF2-FA 1.25 μM, 2 hours at 25° C., read-out: VIM1 IC50
Procedure: as §1, §2

NDM-1 = NDM-1 (Klebsiella pneumoniae, UniProt C7C422); assay: as above; assay type: biochemical; settings: CCF2-FA 1.25 μM, 2 hours at 25° C., read-out: NDM1 IC50
NDM-1, sequence (C7C422 29-270, looked up, species assumed): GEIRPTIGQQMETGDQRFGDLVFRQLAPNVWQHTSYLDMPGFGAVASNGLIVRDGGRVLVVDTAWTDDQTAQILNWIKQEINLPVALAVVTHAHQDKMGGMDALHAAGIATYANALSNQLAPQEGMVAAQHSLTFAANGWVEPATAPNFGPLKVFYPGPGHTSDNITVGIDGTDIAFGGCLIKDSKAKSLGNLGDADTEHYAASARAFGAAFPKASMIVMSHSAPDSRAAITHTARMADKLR
Procedure: as §1, §2

[1] = tested on: Klebsiella pneumoniae expressing VIM-1 (IHMA599644); assay: Antibiotic potentiation activity: synergistic concentration (MITC95) with imipenem, growth by OD600; assay type: cell-based
Procedure: (§3) Antibiotic Potentiation Activity: Determination of Synergistic Concentration
(§4) The bacterial strains tested included the clinical strains Escherichia coli expressing NDM-1 (CLB30005, CLB30016), Serratia marcescens expressing IMP-1 (CL5741), and Klebsiella pneumoniae expressing VIM-1 (IHMA599644). Inhibitor activity was measured in the presence and absence of imipenem or ceftazidime in a 384-well microplate.
(§5) The clinical strains CLB30016, CL5741, and IHMA599644 were grown on trypticase soy agar containing 5% sheep's blood. The clinical strain CLB30005 was grown on Mueller Hinton broth agar containing 8 μg/ml imipenem. The bacteria on agar plates were incubated overnight at 35° C. with ambient humidity (achieved from an open pan of water inside the incubator). The following day, individual colonies from each clinical strain were picked and resuspended in 5 ml saline to attain an OD600 of 0.14, 0.11, 0.15 and 0.13, for CLB30005, CLB30016, CL5741 and IHMA599644, respectively. These were further diluted 1:100 into 1.1×CAMHB and used to inoculate the test wells as described below.
(§6) Imipenem in 10 mM 3-(N-morpholino)propanesulfonic acid (MOPS, pH 7) was stored in single use aliquots at −80° C. Test inhibitors were dissolved in DMSO and diluted 1:50 in the assay, resulting in a final concentration range of 200 μM to 0.195 μM. On the day of the assay, 4 μl of antibiotic was added to 45 μl of bacteria followed by 1 μl of test compound and mixed by pipetting and with an orbital shaker. The concentration of antibiotic used in the assay was 1 μg/ml or 4 μg/ml. Microplates were covered and incubated at 35° C. for 22 hours to 24 hours. At the end of the incubation, absorbance was determined using a spectrophotometer. The synergistic concentration of MBLI was determined by identifying the lowest concentration of test compound in the presence of a given concentration of antibiotic that was required to inhibit 95% of the growth of the bacteria.
(§7) Representative compounds of the present invention display a synergistic effect. For example, representative compounds of EXAMPLES 1-456 were determined to restore susceptibility to imipenem at concentrations of 200 μM or less.

[2] = tested on: Serratia marcescens expressing IMP-1 (CL5741); assay: as above; assay type: cell-based
Procedure: as §3, §4, §5, §6, §7

[3] = tested on: Escherichia coli expressing NDM-1 (CLB30016); assay: as above; assay type: cell-based
Procedure: as §3, §4, §5, §6, §7

[4] = K. pneumoniae IHMA599644 (VIM-1), 95% inhibition of growth
[5] = S. marcescens CL5741 (IMP-1), 95% inhibition of growth
[6] = E. coli CLB30016 (NDM-1), 95% inhibition of growth
[7] = 95% inhibition of bacterial growth, strain IHMA599644
[8] = 95% inhibition of bacterial growth, strain CL5741
[9] = 95% inhibition of bacterial growth, strain CLB30016

IMP-1, sequence (P52699 19-246, looked up, species assumed): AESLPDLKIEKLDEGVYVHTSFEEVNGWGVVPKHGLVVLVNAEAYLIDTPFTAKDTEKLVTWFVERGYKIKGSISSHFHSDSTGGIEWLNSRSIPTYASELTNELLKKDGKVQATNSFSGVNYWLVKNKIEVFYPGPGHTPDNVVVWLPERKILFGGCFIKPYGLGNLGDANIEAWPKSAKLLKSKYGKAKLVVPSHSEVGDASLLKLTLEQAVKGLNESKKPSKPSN

Structure (SMILES) | IC50 (IMP-1; IMP-1 enzyme 2 pM) [nM] | IC50 (VIM-1; VIM-1 enzyme 30 pM) [nM] | IC50 (NDM-1; NDM-1 enzyme 1 pM) [nM] | VIM1 KP599644 MITC95 [1, 4] [µM] | IMP1 SM5741 MITC95 [2, 5] [µM] | NDM1 EC30016 MITC95 [3, 6] [µM] | IC50 (IMP-1; enzyme 2 pM) [nM] | IC50 (VIM-1; enzyme 30 pM) [nM] | IC50 (NDM-1; enzyme 1 pM) [nM] | VIM1 KP599644 MITC95 [1, 7] [µM] | IMP1 SM5741 MITC95 [2, 8] [µM] | NDM1 EC30016 MITC95 [3, 9] [µM]
CC(C)C[C@H](C(=O)O)[C@H](Cc1ccc(N2CC(N3CCN(C)CC3)C2)nc1)c1nnn[nH]1 [Example 332, (2S)-4-methyl-2-[(1S)-2-{6-[3-(4-methylpiperazin-1-yl)azetidin-1-yl]pyridin-3-yl}-1-(1H-tetrazol-5-yl)ethyl]pentanoic acid] | 540 | 24 | 160 | 50 | 12.5 | 4.7 | – | – | – | – | – | –
CC(C)C[C@H](C(=O)O)[C@H](Cc1ccc(N2CC(C)(CN)C2)nc1)c1nnn[nH]1 [Example 325, (2S)-2-[(1S)-2-{6-[3-(aminomethyl)-3-methylazetidin-1-yl]pyridin-3-yl}-1-(1H-tetrazol-5-yl)ethyl]-4-methylpentanoic acid] | 4400 | 36 | 1100 | 75 | 75 | 12.5 | – | – | – | – | – | –
CCC[C@H](C(=O)O)[C@H](Cc1cccc(-c2cccc(C3CCCNC3)c2)c1)c1nn[nH]n1 (stereo partly drawn) [Example 345, (2S)-2-[(1S)-2-(3′-piperidin-3-ylbiphenyl-3-yl)-1-(2H-tetrazol-5-yl)ethyl]pentanoic acid] | 270 | 1.7 | 39 | 18.8 | 6.2 | 25 | – | – | – | – | – | –
CCC[C@H](C(=O)O)[C@H](Cc1cnc(N)s1)c1nnn[nH]1 [Example 115, (2S)-2-[(1S)-2-(2-amino-1,3-thiazol-5-yl)-1-(1H-tetrazol-5-yl)ethyl]pentanoic acid] | – | – | – | – | – | – | 1500 | 6.5 | 170 | 9.4 | 25 | 0.78
CC(=O)N1CCC(C[C@H](c2nnn[nH]2)[C@@H](C(=O)O)C(C)C)CC1 [Example 90, (2S,3S)-4-(1-acetylpiperidin-4-yl)-2-isopropyl-3-(1H-tetrazol-5-yl)butanoic acid] | – | – | – | – | – | – | 14000 | 310 | 200 | 200 | >200 | 62
CCC[C@H](C(=O)O)[C@H](Cc1cccc(Br)c1)c1nn[nH]n1 [Example 16, (S)-2-((S)-2-(3-bromophenyl)-1-(2H-tetrazol-5-yl)ethyl)pentanoic acid] | – | – | – | – | – | – | 120 | 0.75 | 12 | 9.4 | 4.7 | 9.4
CCC[C@H](C(=O)O)[C@H](Cc1ccc(C2CCNC2)cc1)c1nnn[nH]1 (stereo partly drawn) [Example 413, (2S)-2-((1S)-2-(4-(pyrrolidin-3-yl)phenyl)-1-(1H-tetrazol-5-yl)ethyl)pentanoic acid] | 1100 | 4.6 | 146 | 12.5 | 25 | 6.25 | – | – | – | – | – | –
CC(C)C[C@H](C(=O)O)[C@H](Cc1ccc(N2CC(N3CCNCC3)C2)nc1)c1nnn[nH]1 [Example 334, (2S)-4-methyl-2-[(1S)-2-[6-(3-piperazin-1-ylazetidin-1-yl)pyridin-3-yl]-1-(1H-tetrazol-5-yl)ethyl]pentanoic acid] | – | – | – | 50 | 25 | 6.2 | – | – | – | – | – | –
CC(C)C[C@H](C(=O)O)[C@H](Cc1ccc(Oc2ccccc2N2CCNCC2)nc1)c1nn[nH]n1 [Example 387, (2S)-4-methyl-2-[(1S)-2-[6-(2-piperazin-1-ylphenoxy)pyridin-3-yl]-1-(2H-tetrazol-5-yl)ethyl]pentanoic acid] | 2400 | – | 880 | >200 | >200 | >200 | – | – | – | – | – | –
CCC[C@H](C(=O)O)[C@H](Cc1cnc(N2CCNCC2)s1)c1nnn[nH]1 [Example 120, (S)-2-((S)-2-(2-(piperazin-1-yl)thiazo1-5-yl)-1-(1H-tetrazol-5-yl)ethyl)pentanoic acid] | – | – | – | – | – | – | – | 8.5 | 1200 | 37 | >200 | 25
CC(C)(C)[C@H](C(=O)O)[C@H](Cc1ccc(NCCO)nc1)c1nnn[nH]1.O=C(O)C(F)(F)F [Example 428] | – | – | – | 12.5 | 1.563 | 0.7813 | – | – | – | – | – | –
CC(C)C[C@H](C(=O)O)[C@H](Cc1ccc(Oc2ccc(CCN)cc2)nc1)c1nn[nH]n1 [Example 371, (2S)-2-[(1S)-2-{6-[4-(2-aminoethyl)phenoxy]pyridin-3-yl}-1-(2H-tetrazol-5-yl)ethyl]-4-methylpentanoic acid] | 290 | – | 93 | 75 | 12.5 | 12.5 | – | – | – | – | – | –
CC(C)C[C@H](C(=O)O)[C@H](Cc1ccc(Oc2ccccc2N2CCNCC2)nc1)c1nn[nH]n1 [Example 372, (2S)-4-methyl-2-[(1S)-2-[6-(2-piperazin-1-ylphenoxy)pyridin-3-yl]-1-(2H-tetrazol-5-yl)ethyl]pentanoic acid] | 1600 | – | 570 | >200 | 75 | 38 | – | – | – | – | – | –
CC(C)[C@H](C(=O)O)[C@H](Cc1csc(C2=CCNC2)n1)c1nnn[nH]1 [Example 71, (2S,3S)-4-(2-(2,5-dihydro-1H-pyrrol-3-yl)thiazol-4-yl)-2-isopropyl-3-(1H-tetrazol-5-yl)butanoic acid] | – | – | – | – | – | – | – | 120 | 570 | 25 | >200 | 12.5
CC(C)(C)[C@H](C(=O)O)[C@H](Cc1ccc(NCCO)nc1)c1nnn[nH]1.O=C(O)C(F)(F)F [Example 428, 2,2,2-trifluoroacetate] | 18.8 | 37.2 | 45.4 | – | – | – | – | – | – | – | – | –
CC(C)C[C@H](C(=O)O)[C@H](Cc1ccc(N2CC(N3CCNCC3)C2)nc1)c1nnn[nH]1 [Example 324, (2S)-4-methyl-2-[(1S)-2-[6-(3-piperazin-1-ylazetidin-1-yl)pyridin-3-yl]-1-(1H-tetrazol-5-yl)ethyl]pentanoic acid] | – | – | – | >200 | >200 | >200 | – | – | – | – | – | –
CC(C)C[C@H](C(=O)O)[C@H](Cc1ccc(Oc2ccc(CCN)cc2)nc1)c1nn[nH]n1 [Example 392, (2S)-2-[(1S)-2-{6-[4-(2-aminoethyl)phenoxy]pyridin-3-yl}-1-(2H-tetrazol-5-yl)ethyl]-4-methylpentanoic acid] | 270 | – | 49 | 75 | 25 | 6.2 | – | – | – | – | – | –
